{
  "source": "patent US20200360426A1",
  "about": "“PROTOCOL AND COMPOSITION FOR SUPPRESSION OF ALLERGIC RESPONSES” (priority 2019, published 2020)",
  "system": "apheresis patients (allergic reaction to dextran sulfate)",
  "excerpt": "The protocol begins with the oral administration of an antacid and a histamine blocker. […] The histamine blocker can be selected from a number of commercial alternatives. These include, specifically, H-1 blockers, such as loratadine, fexofenadine and azelastine.\nCentrally important and essential is the administration of magnesium, preferably magnesium IV, available as magnesium sulfate. Administration of magnesium sulfate, shortly in advance of apheresis, serves to relax the vascular system, and shift the patient or a sympathetic response to a parasympathetic vascular relaxation response. Magnesium realizes and calms the sympathetic FFF response, the survival instinct that is so prevalent in angioedema. […] While it can be infused over a longer period of more than one hour, a preferred protocol infuses it very rapidly. […] A drip in 100 ml-250 ml normal physiologic saline solution (Ns) or lactated Ringers solution (LR) has been employed. Other carriers, such as dextrose in water (5%) (D5W) or sterile water at smaller volumes, or similar physiologically compatible carriers may be used. A faster drip of not more than 30 minutes is preferable, and may be essential to intervene in and reduce ongoing severe reactions.\nWhen the apheresis is done, dextran sulfate exposure can still cause a reaction. […] Apheresis patients also get oxygen via canula, 2-4 liters a minute through the procedure. […]",
  "data": [
    {"smiles": "O=S(=O)([O-])[O-].[Mg+2]", "note": "[magnesium sulfate]", "values": [
      {"measurement": "allergic reactions observed during dextran sulfate apheresis", "setting": "full protocol: ACE inhibitors stopped at least a week before, antacid and H-1 histamine blocker, magnesium sulfate IV no more than an hour before apheresis, at least 60 apheresis treatments, at least thirty patients", "result": "no issues and little or no allergic reactions were observed"},
      {"measurement": "tolerance of Liposorber apheresis treatment", "setting": "seven patients with previous anaphylactoid shock reaction to Liposorber even with IV steroids, magnesium sulfate without any supportive or additional treatments", "result": "allowed all 7 patients to tolerate the treatment"}
    ]}
  ]
}
